Assay [1] relates to Arabidopsis thaliana Columbia-0. Kind of assay: Arabidopsis horizontal plate leaf area assay. In kind it is in vivo. The settings on record: Arabidopsis horizontal plates (Table 4); control without compound 63. As to the method:
(§1) All Arabidopsis plant experiments were performed using the Arabidopsis thaliana Columbia-0 background. The Arabidopsis pSPX1::GUS line is described in the […] 2008, 54: 965-975. For rice, the cultivar Nipponbare was used. For maize, the cultivars DKC 2931 and 8104 were used for regular pot experiments and sand-based pot experiments, respectively. For soybean, the cultivar Primus was used. […] The medium was solidified due to the addition of 0.6% Gelrite, unless stated otherwise. In case of vertical plates (root length and root hair measurements), the medium was supplied with 0.5% of sucrose and 1 μM (low phosphate, 1 μM KH2PO4, 9.9 mM KCl), 10 μM (low phosphate 10 μM KH2PO4, 9.9 mM KCl) or 1.25 mM KH2PO4 (high phosphate). Arabidopsis seeds were stratified for 2 days at 4° C. before germination. Seedlings were germinated in climate-controlled growth chambers at 22° C. under continuous light ([…] m^−2 s^−1). Husked rice seeds were germinated on wetted Whatman paper for 2 days at 37° C. and then transferred to Sterivent boxes or square Petri dishes with solid medium. Maize and soybean seeds were wetted 24 hours at room temperature prior to sowing in pots.
Arabidopsis primary root growth experiments were done on MS1/2 on vertical standing plates and roots were measured 11 days after germination. Roots were imaged using a flatbed scanner (EPSON Expression 11000XL) and root length was measured using ImageJ software. Arabidopsis shoot biomass was determined in 11 days after germination and growth on vertical standing plates with modMS. Arabidopsis leaf area was measured 21 days after germination on horizontal plates with modMS medium. Plates were scanned from the top using a flatbed scanner (EPSON Expression 11000XL) and the visible leaf area was measured using ImageJ software. Rice plate experiments used vertically standing Petri dishes containing MS1/2 medium (low phosphate—0.001 mM) solidified with 0.8% washed agar. Plant height was measured 11 days after germination. Rice box experiments used modMS medium and a low phosphate condition of 0.025 mM phosphate. Plant height was measured 13 days after germination. All growth experiments occurred with 10 μM of compound and in low phosphate conditions, unless stated otherwise. Controls always received the same DMSO concentration.

Assay [2] shares this test system. Nature of the assay: Root hair number and length quantification, Arabidopsis vertical plate. In kind it is in vivo. The settings on record: for activity at 1 µM: 1 μM compound. The method, then:
as §1
Roots were imaged using a stereomicroscope or a VHX-6000. Number and length of the root hairs parallel to the medium surface was determined at 4 to 6 mm above the root meristem. Root hair length was measured using the ImageJ software.

The subject of assay [3] is SPX1 phosphate starvation biomarker (pSPX1::GUS). Kind of assay: Chemical activity assessment: SPX1 suppression in Arabidopsis pSPX1::GUS reporter line (GUS stained area). It counts as in vivo, Arabidopsis thaliana. The settings on record: 50 μM compound, low phosphate modMS liquid medium, 96-well, 7 days after germination; low phosphate control of same plate. As to the method: as §1
For the chemical activity assessment 3 to 8 seeds per well of Arabidopsis pSPX1::GUS line were sown in 96-well plates containing 150 μl of low phosphate modMS liquid medium containing 1% of sucrose. Compounds were added in 50 μM concentration, starting from a 5 mM stock of compounds solved in DMSO. Different chemical substances were separately added to different wells. Per plate, 16 control wells were used, 8 containing only the low phosphate medium and 1% DMSO, and 8 containing high phosphate medium and 1% DMSO. 7 days after germination, plates were scanned using a flatbed scanner (EPSON Expression 11000XL) and analyzed for leaf size. After scanning, the growth medium was replaced by GUS staining solution (see Plant Mol. Biol. Rep. 1994, 12: 37-42 for details) and incubated for 1.5 hours at 37° C. The plates were scanned a second time and analyzed for GUS signal area. Measurements of both leaf area and GUS signal area were conducted by filtering out and measure the green and blue signal, respectively using ImageJ software. If the green leaf area was 50% or less than the control, samples were omitted. Additionally, all results were visually screened for leaf size and GUS signal.
To identify new substances that suppress the expression of the SPX1 phosphate starvation biomarker, we used an Arabidopsis SPX1 reporter line pSPX1::GUS. […] This observation was confirmed in two experimental repeats.

A further assay concerns maize cultivar B104. Nature of the assay: Long term maize pot experiment, Phenovision platform, B104. In kind it is in vivo. The settings on record: B104, end point after 90 days. As to the method: (§2) Regular Arabidopsis, soybean and maize pot experiments used an unfertilized potting soil, which was supplemented at the start of the experiment with 50 ml H2O containing 0.25 g/l NH4NO3 and 0.44 g/l (high phosphate) or no (maize and soybean) or 0.11 g/l KH2PO (Arabidopsis) for low phosphate conditions. For the sand-based maize pot experiment, sand was supplemented with 50 ml H2O containing 0.25 g/l NH4NO3 and 0.38 g/l (high phosphate) or 0.02 g/l (low phosphate) KH2PO4. Potassium was balanced via addition of KCl. Compound concentration was 10 μM, calculated based on the total water content after watering, and was added at the start of the experiment (Arabidopsis) or once a week (maize). Indexed chlorophyll contents were received via a SPAD 502 Plus Chlorophyll Meter. All parameters in the sand experiment, except the rate of leaf 4 (measured the first 4 days after emergence), were measured 19 days after sowing. Measurements in the pot experiments with potting soil were done after 4 weeks of growth, except for leaf 5, which was measured at 26 days. The long term maize pot experiment was performed on the automated Phenovision platform (see Mertens et al, 2021, https://doi.org/10.3389/fpls.2021.640914) with maize cultivars B104 and DKC2931. End point measurements occurred after 90 days (B104) or 70 days (DKC2931). Plants were grown on an unfertilized potting soil, which was fertilized bi-weekly with 50 mL modified Hoagland solution (2.5× concentrated; but with 0.25 mM KH2PO4).

Another assay concerns maize cultivar DKC2931. Nature of the assay: Long term maize pot experiment, Phenovision platform, DKC2931. In kind it is in vivo. The settings on record: DKC2931, end point after 70 days. The method, then:
as §2

The subject of a further assay is maize cultivar DKC 2931. Nature of the assay: Regular maize pot experiment (potting soil). In kind it is in vivo. Conditions: low phosphate, 10 μM compound. As to the method:
as §1, §2

[4] abbreviates: Arabidopsis thaliana, read-out: Total root hair length per root (in % compared to the control).
Where [5] appears, read: Arabidopsis vertical plate, high phosphate.

`CCN(CCCNC)c1ccccc1` [Example 5] came in with an Average leaf area in assay [1] of 65 mm^2.
In the case of `CCN(C)c1ccccc1` [Example 9], the activity at 1 µM in assay [2] (setting [4]) is 390%. Moreover, the activity at 3 µM in assay [2] (Arabidopsis thaliana, 3 μM compound, read-out: Total root hair length per root (in % compared to the control)) was found to be 313%. In assay [2] (Arabidopsis thaliana, 10 μM compound, read-out: Total root hair length per root (in % compared to the control)), the activity at 10 µM was 758%.
Regarding `Cc1ccccc1-c1nnc(SCC(=O)NCCCN(C)c2ccccc2)n1C` [Example 11], the “GUS (SPX1) stained area normalized to the number of seeds” value (shortened to “GUS (SPX1) stained area normalized”) in assay [3] stood at 800 pixels.
With `CCN(CCCNC(=O)CNC(=O)c1cc(C)cc(C)c1)c1ccccc1` [Example 6], the “GUS (SPX1) stained area normalized” value in assay [3] was determined as 8 pixels.
`CN(CCCN)c1ccccc1` [Example 4]: the Average leaf area in assay [1] is 72 mm^2.
For `CN(CCCNC(=O)CSc1nnnn1-c1ccccc1)c1ccccc1` [Example 10], the “GUS (SPX1) stained area normalized” value in assay [3] came to 298 pixels.
In turn, `NCCCNc1ccccc1` [Example 3] displayed an Average leaf area in assay [1] of 69 mm^2.
Regarding `CCN(CCCN)c1ccccc1` [Example 2], in the assay with maize cultivar B104, the Biomass was 37 g, the Plant height stood at 719 mm, the “Plants with developed ears” value was 62% and the Sum of leaf length is 6050 mm. Moreover, in assay [2] (setting [4]), the activity at 1 µM amounted to 886%. In assay [2] (setting [5]), the “Average root hair length per root in high phosphate conditions” value is 0.28 mm, the “Root hair number in high phosphate conditions (one plane in 2 mm region)” value turned out to be 8 and the “Total root hair length per root in high phosphate conditions” value was 0.27 cm. In addition, in the assay on maize cultivar DKC2931, the Biomass is listed as 31 g, the Plant height came out at 1010 mm, the “Plants with developed ears” value was 100% and the Sum of leaf length is 3950 mm. Moreover, in the assay on maize cultivar DKC 2931 (4 weeks), the Plant height is on record as 62 cm and the Shoot weight turned out to be 4.5 g. Moreover, the “Leaf 5” value with maize cultivar DKC 2931 (26 days) amounted to 46 cm. For the same compound, the “GUS (SPX1) stained area normalized” value in assay [3] is recorded as 21 pixels.
